Results published in PMC6886798, “Expression of myeloid Src-family kinases is associated with poor prognosis in AML and influences Flt3-ITD kinase inhibitor acquired resistance” (PLoS ONE, 2019).

Legend:
Assay in all cases: KINOMEscan
Assay type in all cases: binding
Settings in all cases: 1.0 µM
[1] = target: T1, ABL1(F317I)-phosphorylated (Homo sapiens, UniProt P00519, F317I)
T1 construct: purchased Eurofins/DiscoverX KINOMEscan scanMAX
Protocol: (§1) Kinase retention to the immobilized ligand is then measured using quantitative real-time PCR for each kinase-specific DNA barcode.

[2] = target: T2, ADCK4 (Homo sapiens, UniProt Q96D53)
T2 construct: purchased Eurofins/DiscoverX KINOMEscan scanMAX
Protocol: as §1

[3] = target: T3, ANKK1 (Homo sapiens, UniProt Q8NFD2)
T3 construct: purchased Eurofins/DiscoverX KINOMEscan scanMAX
Protocol: as §1

[4] = target: T4, AURKC (Homo sapiens, UniProt Q9UQB9)
T4 construct: purchased Eurofins/DiscoverX KINOMEscan scanMAX
Protocol: as §1

[5] = target: T5, BMPR2 (Homo sapiens, UniProt Q13873)
T5 construct: purchased Eurofins/DiscoverX KINOMEscan scanMAX
Protocol: as §1

[6] = target: T6, BMX (Homo sapiens, UniProt P51813)
T6 construct: purchased Eurofins/DiscoverX KINOMEscan scanMAX
Protocol: as §1

[7] = target: T7, CAMK4 (Homo sapiens, UniProt Q16566)
T7 construct: purchased Eurofins/DiscoverX KINOMEscan scanMAX
T7 sequence (Q16566 whole entry): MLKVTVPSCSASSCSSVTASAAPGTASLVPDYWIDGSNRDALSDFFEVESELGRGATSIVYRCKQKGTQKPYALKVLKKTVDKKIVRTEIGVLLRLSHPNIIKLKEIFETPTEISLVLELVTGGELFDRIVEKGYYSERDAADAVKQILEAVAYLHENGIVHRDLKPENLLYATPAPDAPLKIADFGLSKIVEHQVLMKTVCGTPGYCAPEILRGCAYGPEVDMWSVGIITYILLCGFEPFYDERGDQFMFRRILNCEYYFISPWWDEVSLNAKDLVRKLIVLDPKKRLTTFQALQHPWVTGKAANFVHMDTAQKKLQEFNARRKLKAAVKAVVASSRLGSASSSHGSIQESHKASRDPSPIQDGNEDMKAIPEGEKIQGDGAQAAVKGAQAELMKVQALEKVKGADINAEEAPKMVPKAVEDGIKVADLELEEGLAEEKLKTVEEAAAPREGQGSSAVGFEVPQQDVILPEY
Protocol: as §1

[8] = target: T8, CDK2 (Homo sapiens, UniProt P24941)
T8 construct: purchased Eurofins/DiscoverX KINOMEscan scanMAX
Protocol: as §1

[9] = target: T9, CSNK1D (Homo sapiens, UniProt P48730)
T9 construct: purchased Eurofins/DiscoverX KINOMEscan scanMAX
Protocol: as §1

[10] = target: T10, CSNK1G2 (Homo sapiens, UniProt P78368)
T10 construct: purchased Eurofins/DiscoverX KINOMEscan scanMAX
T10 sequence (P78368 whole entry): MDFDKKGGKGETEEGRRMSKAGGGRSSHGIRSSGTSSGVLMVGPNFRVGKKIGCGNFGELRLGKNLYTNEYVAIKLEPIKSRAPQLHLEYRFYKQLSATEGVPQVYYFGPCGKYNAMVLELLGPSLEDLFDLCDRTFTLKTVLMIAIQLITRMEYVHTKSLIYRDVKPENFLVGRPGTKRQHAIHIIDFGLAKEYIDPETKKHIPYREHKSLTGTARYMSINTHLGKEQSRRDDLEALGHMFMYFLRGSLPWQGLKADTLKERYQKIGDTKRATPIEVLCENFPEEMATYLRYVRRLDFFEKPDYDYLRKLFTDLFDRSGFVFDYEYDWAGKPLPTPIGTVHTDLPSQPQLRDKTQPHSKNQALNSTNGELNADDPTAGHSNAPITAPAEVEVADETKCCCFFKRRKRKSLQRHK
Protocol: as §1

[11] = target: T11, EPHA7 (Homo sapiens, UniProt Q15375)
T11 construct: purchased Eurofins/DiscoverX KINOMEscan scanMAX
Protocol: as §1

[12] = target: T12, EPHB2 (Homo sapiens, UniProt P29323)
T12 construct: purchased Eurofins/DiscoverX KINOMEscan scanMAX
Protocol: as §1

[13] = target: T13, EPHB4 (Homo sapiens, UniProt P54760)
T13 construct: purchased Eurofins/DiscoverX KINOMEscan scanMAX
Protocol: as §1

[14] = target: T14, FGFR4 (Homo sapiens, UniProt P22455)
T14 construct: purchased Eurofins/DiscoverX KINOMEscan scanMAX
Protocol: as §1

[15] = target: T15, FLT3(D835Y) (Homo sapiens, UniProt P36888, D835Y)
T15 construct: purchased Eurofins/DiscoverX KINOMEscan scanMAX
Protocol: as §1

[16] = target: T16, GRK4 (Homo sapiens, UniProt P32298)
T16 construct: purchased Eurofins/DiscoverX KINOMEscan scanMAX
Protocol: as §1

[17] = target: T17, IKK-beta (Homo sapiens, UniProt O14920)
T17 construct: purchased Eurofins/DiscoverX KINOMEscan scanMAX
Protocol: as §1

[18] = target: T18, JAK1(JH1domain-catalytic) (Homo sapiens, UniProt P23458)
T18 construct: JAK1(JH1domain-catalytic); purchased Eurofins/DiscoverX KINOMEscan scanMAX
Protocol: as §1

[19] = target: T19, LATS1 (Homo sapiens, UniProt O95835)
T19 construct: purchased Eurofins/DiscoverX KINOMEscan scanMAX
Protocol: as §1

[20] = target: T20, LRRK2 (Homo sapiens, UniProt Q5S007)
T20 construct: purchased Eurofins/DiscoverX KINOMEscan scanMAX
Protocol: as §1

[21] = target: T21, MAK (Homo sapiens, UniProt P20794)
T21 construct: purchased Eurofins/DiscoverX KINOMEscan scanMAX
Protocol: as §1

[22] = target: T22, MAP3K2 (Homo sapiens, UniProt Q9Y2U5)
T22 construct: purchased Eurofins/DiscoverX KINOMEscan scanMAX
Protocol: as §1

[23] = target: T23, MAPKAPK2 (Homo sapiens, UniProt P49137)
T23 construct: purchased Eurofins/DiscoverX KINOMEscan scanMAX
T23 sequence (P49137 whole entry): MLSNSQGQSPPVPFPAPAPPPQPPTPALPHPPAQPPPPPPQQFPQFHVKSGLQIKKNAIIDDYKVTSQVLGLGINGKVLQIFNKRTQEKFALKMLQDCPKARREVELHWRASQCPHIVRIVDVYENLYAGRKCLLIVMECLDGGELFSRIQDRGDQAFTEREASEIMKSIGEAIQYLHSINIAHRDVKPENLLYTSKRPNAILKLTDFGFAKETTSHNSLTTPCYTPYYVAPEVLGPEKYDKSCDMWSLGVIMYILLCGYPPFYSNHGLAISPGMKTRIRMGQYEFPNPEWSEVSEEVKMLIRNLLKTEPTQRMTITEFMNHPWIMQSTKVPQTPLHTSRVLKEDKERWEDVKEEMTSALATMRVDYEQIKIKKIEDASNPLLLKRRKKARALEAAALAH
Protocol: as §1

[24] = target: T24, MARK1 (Homo sapiens, UniProt Q9P0L2)
T24 construct: purchased Eurofins/DiscoverX KINOMEscan scanMAX
Protocol: as §1

[25] = target: T25, MELK (Homo sapiens, UniProt Q14680)
T25 construct: purchased Eurofins/DiscoverX KINOMEscan scanMAX
T25 sequence (Q14680 whole entry): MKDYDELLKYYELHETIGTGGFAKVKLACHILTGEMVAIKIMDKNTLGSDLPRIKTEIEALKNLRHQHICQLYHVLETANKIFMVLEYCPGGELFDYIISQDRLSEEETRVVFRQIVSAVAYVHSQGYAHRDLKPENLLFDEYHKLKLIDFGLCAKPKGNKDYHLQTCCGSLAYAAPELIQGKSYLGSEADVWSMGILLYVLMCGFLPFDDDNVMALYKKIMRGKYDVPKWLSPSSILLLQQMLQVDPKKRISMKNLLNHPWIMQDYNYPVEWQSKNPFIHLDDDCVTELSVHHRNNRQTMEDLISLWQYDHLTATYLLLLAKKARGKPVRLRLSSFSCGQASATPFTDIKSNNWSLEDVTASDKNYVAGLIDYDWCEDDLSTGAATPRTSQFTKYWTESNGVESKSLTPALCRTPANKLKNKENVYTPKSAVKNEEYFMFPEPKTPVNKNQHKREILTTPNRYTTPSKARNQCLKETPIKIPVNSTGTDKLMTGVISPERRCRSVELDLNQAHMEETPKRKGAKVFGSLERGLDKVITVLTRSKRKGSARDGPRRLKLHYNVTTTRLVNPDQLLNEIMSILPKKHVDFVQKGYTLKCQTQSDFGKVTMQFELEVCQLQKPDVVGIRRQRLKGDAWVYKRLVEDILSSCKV
Protocol: as §1

[26] = target: T26, MLK2 (Homo sapiens, UniProt Q02779)
T26 construct: purchased Eurofins/DiscoverX KINOMEscan scanMAX
T26 sequence (Q02779 whole entry): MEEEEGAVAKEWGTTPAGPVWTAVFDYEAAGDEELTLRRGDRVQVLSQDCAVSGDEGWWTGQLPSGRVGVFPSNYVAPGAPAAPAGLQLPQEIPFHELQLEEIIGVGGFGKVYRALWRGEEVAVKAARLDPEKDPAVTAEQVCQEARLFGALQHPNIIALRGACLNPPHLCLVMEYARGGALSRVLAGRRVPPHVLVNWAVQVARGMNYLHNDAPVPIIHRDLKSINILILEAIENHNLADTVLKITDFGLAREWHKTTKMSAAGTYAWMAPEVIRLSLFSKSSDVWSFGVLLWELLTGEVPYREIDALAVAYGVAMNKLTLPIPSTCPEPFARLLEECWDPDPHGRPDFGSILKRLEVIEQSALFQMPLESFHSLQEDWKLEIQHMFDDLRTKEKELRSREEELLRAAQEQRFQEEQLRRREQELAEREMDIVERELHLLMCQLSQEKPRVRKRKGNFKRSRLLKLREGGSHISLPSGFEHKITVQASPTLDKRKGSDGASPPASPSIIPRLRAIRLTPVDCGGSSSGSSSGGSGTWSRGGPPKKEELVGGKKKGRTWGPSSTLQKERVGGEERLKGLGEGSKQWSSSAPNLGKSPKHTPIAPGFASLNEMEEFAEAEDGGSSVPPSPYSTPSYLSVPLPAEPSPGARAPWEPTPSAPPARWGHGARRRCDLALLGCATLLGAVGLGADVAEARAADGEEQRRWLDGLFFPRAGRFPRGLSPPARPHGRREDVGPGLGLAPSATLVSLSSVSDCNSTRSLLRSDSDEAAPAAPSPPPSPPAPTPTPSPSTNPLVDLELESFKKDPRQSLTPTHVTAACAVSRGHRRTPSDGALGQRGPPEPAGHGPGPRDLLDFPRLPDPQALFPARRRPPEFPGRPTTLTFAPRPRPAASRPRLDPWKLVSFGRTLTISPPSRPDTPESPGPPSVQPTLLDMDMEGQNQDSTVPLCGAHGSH
Protocol: as §1

[27] = target: T27, MST4 (Homo sapiens, UniProt Q9P289)
T27 construct: purchased Eurofins/DiscoverX KINOMEscan scanMAX
Protocol: as §1

[28] = target: T28, PAK3 (Homo sapiens, UniProt O75914)
T28 construct: purchased Eurofins/DiscoverX KINOMEscan scanMAX
T28 sequence (O75914 whole entry): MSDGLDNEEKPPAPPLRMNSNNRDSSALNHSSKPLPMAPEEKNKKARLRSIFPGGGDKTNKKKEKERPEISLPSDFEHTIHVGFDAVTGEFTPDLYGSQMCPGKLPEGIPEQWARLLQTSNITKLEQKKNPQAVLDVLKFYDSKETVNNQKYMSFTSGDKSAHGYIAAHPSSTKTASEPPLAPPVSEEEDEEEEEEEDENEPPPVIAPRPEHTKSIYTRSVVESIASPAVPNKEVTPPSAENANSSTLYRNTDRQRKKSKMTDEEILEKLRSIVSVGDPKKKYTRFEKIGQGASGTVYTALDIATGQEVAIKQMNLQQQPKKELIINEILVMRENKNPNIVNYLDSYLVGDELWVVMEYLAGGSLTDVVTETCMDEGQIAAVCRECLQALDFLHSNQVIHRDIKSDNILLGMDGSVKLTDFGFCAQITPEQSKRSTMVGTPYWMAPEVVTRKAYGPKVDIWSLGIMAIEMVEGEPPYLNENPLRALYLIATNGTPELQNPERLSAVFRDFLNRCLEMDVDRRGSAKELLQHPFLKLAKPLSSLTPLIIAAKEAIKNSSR
Protocol: as §1

[29] = target: T29, PFPK5(P.falciparum) (Plasmodium falciparum, UniProt P61075)
T29 construct: purchased Eurofins/DiscoverX KINOMEscan scanMAX
Protocol: as §1

[30] = target: T30, PIK3CA(E545K) (Homo sapiens, UniProt P42336, E545K)
T30 construct: purchased Eurofins/DiscoverX KINOMEscan scanMAX
Protocol: as §1

[31] = target: T31, PIK3CA(Q546K) (Homo sapiens, UniProt P42336, Q546K)
T31 construct: purchased Eurofins/DiscoverX KINOMEscan scanMAX
Protocol: as §1

[32] = target: T32, PLK1 (Homo sapiens, UniProt P53350)
T32 construct: purchased Eurofins/DiscoverX KINOMEscan scanMAX
Protocol: as §1

[33] = target: T33, PRKCE (Homo sapiens, UniProt Q02156)
T33 construct: purchased Eurofins/DiscoverX KINOMEscan scanMAX
Protocol: as §1

[34] = target: T34, PRKCH (Homo sapiens, UniProt P24723)
T34 construct: purchased Eurofins/DiscoverX KINOMEscan scanMAX
Protocol: as §1

[35] = target: T35, RIPK4 (Homo sapiens, UniProt P57078)
T35 construct: purchased Eurofins/DiscoverX KINOMEscan scanMAX
Protocol: as §1

[36] = target: T36, RPS6KA5(Kin.Dom.1-N-terminal) (Homo sapiens, UniProt O75582)
T36 construct: RPS6KA5(Kin.Dom.1-N-terminal); purchased Eurofins/DiscoverX KINOMEscan scanMAX
T36 sequence (O75582 49-387 limits assumed): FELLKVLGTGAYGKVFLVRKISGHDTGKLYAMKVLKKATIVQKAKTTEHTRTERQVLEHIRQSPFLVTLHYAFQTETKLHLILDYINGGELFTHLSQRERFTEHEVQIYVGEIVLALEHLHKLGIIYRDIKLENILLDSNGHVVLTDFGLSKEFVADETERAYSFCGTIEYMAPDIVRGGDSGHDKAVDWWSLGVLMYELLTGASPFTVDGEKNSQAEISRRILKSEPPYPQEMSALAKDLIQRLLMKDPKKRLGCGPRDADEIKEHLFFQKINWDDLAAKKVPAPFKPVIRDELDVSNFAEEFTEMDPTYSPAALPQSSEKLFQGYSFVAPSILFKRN
Protocol: as §1

[37] = target: T37, RSK1(Kin.Dom.1-N-terminal) (Homo sapiens, UniProt Q15418)
T37 construct: RSK1(Kin.Dom.1-N-terminal); purchased Eurofins/DiscoverX KINOMEscan scanMAX
Protocol: as §1

[38] = target: T38, SNARK (Homo sapiens, UniProt Q9H093)
T38 construct: purchased Eurofins/DiscoverX KINOMEscan scanMAX
Protocol: as §1

[39] = target: T39, TXK (Homo sapiens, UniProt P42681)
T39 construct: DNA tag (qPCR barcode); purchased Eurofins/DiscoverX KINOMEscan scanMAX
Protocol: as §1

[40] = target: T40, ULK2 (Homo sapiens, UniProt Q8IYT8)
T40 construct: DNA tag (qPCR barcode); purchased Eurofins/DiscoverX KINOMEscan scanMAX
T40 sequence (Q8IYT8 whole entry): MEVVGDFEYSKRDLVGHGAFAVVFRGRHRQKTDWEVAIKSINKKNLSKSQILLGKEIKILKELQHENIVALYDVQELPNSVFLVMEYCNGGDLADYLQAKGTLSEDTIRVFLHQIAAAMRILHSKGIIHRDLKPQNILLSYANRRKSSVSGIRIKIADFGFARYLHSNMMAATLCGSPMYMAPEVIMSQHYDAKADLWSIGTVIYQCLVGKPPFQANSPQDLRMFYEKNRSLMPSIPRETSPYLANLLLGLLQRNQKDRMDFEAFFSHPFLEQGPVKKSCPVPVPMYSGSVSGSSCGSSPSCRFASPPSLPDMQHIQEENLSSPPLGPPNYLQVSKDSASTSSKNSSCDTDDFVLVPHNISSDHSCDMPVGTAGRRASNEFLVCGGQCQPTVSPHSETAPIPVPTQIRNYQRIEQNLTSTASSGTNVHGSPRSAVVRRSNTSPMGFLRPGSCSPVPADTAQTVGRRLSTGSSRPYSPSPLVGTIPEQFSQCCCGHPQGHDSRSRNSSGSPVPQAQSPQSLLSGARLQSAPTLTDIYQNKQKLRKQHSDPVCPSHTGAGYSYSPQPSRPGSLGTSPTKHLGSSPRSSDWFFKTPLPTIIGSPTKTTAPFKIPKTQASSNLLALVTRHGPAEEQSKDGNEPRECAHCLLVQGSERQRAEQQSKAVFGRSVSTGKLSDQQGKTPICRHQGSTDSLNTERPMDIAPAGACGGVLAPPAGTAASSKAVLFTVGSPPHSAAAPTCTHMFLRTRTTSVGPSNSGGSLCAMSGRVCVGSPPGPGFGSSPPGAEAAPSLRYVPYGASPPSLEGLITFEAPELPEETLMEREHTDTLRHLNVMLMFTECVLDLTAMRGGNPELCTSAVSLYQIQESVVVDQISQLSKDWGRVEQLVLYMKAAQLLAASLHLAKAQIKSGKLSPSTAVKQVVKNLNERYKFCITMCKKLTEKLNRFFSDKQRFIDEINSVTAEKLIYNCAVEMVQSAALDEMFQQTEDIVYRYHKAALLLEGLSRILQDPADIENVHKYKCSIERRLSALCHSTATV
Protocol: as §1

SMILES: CN1CCN(C2CCC(n3cc(-c4ccc(Oc5ccccc5)cc4)c4c(N)ncnc43)CC2)CC1 (stereo not shown) [A-419259]
- % Control [1]: 2.4%
- % Control [2]: 100%
- % Control [3]: 73%
- % Control [4]: 79%
- % Control [5]: 97%
- % Control [6]: 30%
- % Control [7]: 100%
- % Control [8]: 70%
- % Control [9]: 8.3%
- % Control [10]: 84%
- % Control [11]: 100%
- % Control [12]: 100%
- % Control [13]: 100%
- % Control [14]: 62%
- % Control [15]: 7.6%
- % Control [16]: 100%
- % Control [17]: 90%
- % Control [18]: 99%
- % Control [19]: 30%
- % Control [20]: 98%
- % Control [21]: 100%
- % Control [22]: 1.7%
- % Control [23]: 100%
- % Control [24]: 82%
- % Control [25]: 21%
- % Control [26]: 29%
- % Control [27]: 4.9%
- % Control [28]: 36%
- % Control [29]: 78%
- % Control [30]: 95%
- % Control [31]: 100%
- % Control [32]: 100%
- % Control [33]: 88%
- % Control [34]: 87%
- % Control [35]: 84%
- % Control [36]: 77%
- % Control [37]: 8.4%
- % Control [38]: 26%
- % Control [39]: 13%
- % Control [40]: 47%
